Patent publication US20260216347A1, “Substituted Imidazo-Based Compounds as Ligand Directed Degraders of IRAK3” (Celgene Corporation, priority 2022, published 2026)

Legend:
IRAK3 = molecular target: T1, IRAK3 (Homo sapiens, UniProt Q9Y616); assay: IRAK endogenous HTRF degradation assay (Total-IRAK3 HTRF kit); type: cell-based; conditions: overnight incubation, lowest percentage of protein remaining
T1 construct: IRAK Endogenous HTRF Degradation Assay; endogenous in cells
T1 sequence (Q9Y616 1-596): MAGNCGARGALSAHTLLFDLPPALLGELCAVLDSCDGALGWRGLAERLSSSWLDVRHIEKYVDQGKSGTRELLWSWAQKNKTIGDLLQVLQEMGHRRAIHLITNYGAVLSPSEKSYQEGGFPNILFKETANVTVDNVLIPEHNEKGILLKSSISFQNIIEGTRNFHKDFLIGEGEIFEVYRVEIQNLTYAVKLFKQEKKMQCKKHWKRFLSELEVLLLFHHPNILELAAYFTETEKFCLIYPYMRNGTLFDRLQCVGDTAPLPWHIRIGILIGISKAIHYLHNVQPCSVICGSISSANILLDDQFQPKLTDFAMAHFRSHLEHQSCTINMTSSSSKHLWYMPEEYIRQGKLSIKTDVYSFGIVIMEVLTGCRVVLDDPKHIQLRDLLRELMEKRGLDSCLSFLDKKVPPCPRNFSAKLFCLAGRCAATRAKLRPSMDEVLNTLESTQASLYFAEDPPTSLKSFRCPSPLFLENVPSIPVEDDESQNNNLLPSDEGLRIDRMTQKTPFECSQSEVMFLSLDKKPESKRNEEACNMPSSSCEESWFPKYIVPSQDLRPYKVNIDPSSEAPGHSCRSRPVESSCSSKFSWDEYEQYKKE
Method: Example B2. IRAK Endogenous HTRF Degradation Assay
Cells (~50 k) were plated in Cisbio 96-well low volume white plates (Cisbio: cat #66PL96005). Compounds were dissolved in DMSO and a 3-fold serial dilution was performed using a TECAN D300E. Cells were incubated with the compound overnight. Total-IRAK3 HTRF kit from Cisbio was used for degradation analysis (Cisbio: 63ADK101PEH). Cryptate and D2 antibodies were diluted in Detection buffer as per manufacturers recommendation. Then 2 μL of each solution was added to 16 μL lysate. Buffer control (lysis buffer detection buffer), Cryptate control (lysis buffer+cryptate antibody+detection buffer), and Negative control (lysis buffer+cryptate antibody+D2 antibody) were made as per manufacturers recommendation. Post incubation with antibodies the HTRF signal was measured using a Perkin Elmer Envision reader and the HTRF signal was calculated using formula: (Emission at 665 nm/Emission at 615 nm)*10,000. All HTRF values were normalized to the average value of DMSO. The average value of the DMSO control wells were set to equal 100% of the relative IRAK3 protein levels. Normalized luminescence values were plotted on a graph as a function of compound concentration. Compound concentration was plotted on the x-axis and the corresponding normalized IRAK3 protein levels on the y-axis. The EC50 value (the half-maximum effective concentration) of a compound for the degradation of the IRAK3 was calculated using a four-parameter logistic model (sigmoidal dose-response model) (FIT=(A+{(B−A)/1+[(C/x)D]})) where C is the inflection point (EC50), D is the […], and A and B are the low and high limits of the fit, respectively). The Ymin was calculated by determining the lowest percentage of target protein remaining following compound treatment. Dmax was calculated from Ymin (% Dmax=100−Ymin).
Using these assays, IC50, Dmax, EC50, and DC50 values of the following compounds were determined. Dmax is defined as the maximum percent degradation achieved and DC50 is the concentration at which 50% degradation is achieved.

IRAK3-ePL = molecular target: T2, IRAK3-ePL (Homo sapiens, UniProt Q9Y616); assay: IRAK3-ePL overexpressing degradation assay (InCELL Hunter luminescence, dose response); type: cell-based; conditions: for IRAK3 ePL degradation Ymin: lowest percentage of target protein remaining following compound treatment; for DC50: read-out: IRAK3 ePL degradation EC50
T2 construct: expressed in transfected cells; host or cells: 293T CRBN OE/GSPT1 G575N KI cells, lentiviral transduction, puromycin selected
Procedure, shortened: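 Lenti-X 293T CRBN/GSPT1 G575N cells stably expressing IRAK3-ePL (5,000/well) treated overnight at 37° C with 10-point 3-fold dilutions from 10 μM, 0.2% DMSO. InCELL Hunter luminescence, background subtracted using Ataluren wells and normalized to DMSO; EC50 from four-parameter logistic fit.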

Compound	IRAK3 HTRF degradation Ymin (IRAK3)	IRAK3 ePL degradation Ymin (IRAK3-ePL)	DC50 (IRAK3-ePL)
Cc1cc(-c2cnc(Nc3cnn(C4CCN(CCN5[C@H](C)CN(c6ccc(C7CCC(=O)NC7=O)cc6)C[C@H]5C)CC4)c3)c3nccn23)c(F)cc1F (stereo partly drawn) [Compound 58, 3-(4-((3R,5R)-4-(2-(4-(4-((5-(2,4-difluoro-5-methylphenyl)imdazo [1,2-a]pyrazin-8-yl)amino)-1H-pyrazol-1-yl)piperidin-1-yl)ethyl)-3,5-dimethylpiperazin-1-yl)phenyl) piperidine-2,6-dione]	9.7%	25%	0.98 nM
Cc1cc(-c2cnc(Nc3cnn([C@@H]4CCN(CCN5CCN(c6ccc(C7CCC(=O)NC7=O)cc6)C[C@@H]5C)[C@H](C)C4)c3)c3nccn23)c(F)cc1F (stereo partly drawn) [Compound 59, 3-(4-((S)-4-(2-((2R,4R)-4-(4-((5-(2,4-difluoro-5-methylphenyl)imdazo [1,2-a]pyrazin-8-yl)amino)-1H-pyrazol-1-yl)-2-methylpiperidin-1-yl)ethyl)-3-methylpiperazin-1-yl)phenyl) piperidine-2,6-dione]	7.5%	21%	0.51 nM
Cc1cc(-c2cnc(N[C@@H]3CCN(C4CCN(CCN5CCN(c6ccc(C7CCC(=O)NC7=O)cc6)CC5)CC4)C3)c3nccn23)c(F)cc1F (stereo partly drawn) [Compound 60, 3-(4-(4-(2-(4-((R)-3-((5-(2,4-difluoro-5-methylphenyl)imdazo [1,2-a]pyrazin-8-yl)amino)pyrrolidin-1-yl)piperidin-1-yl)ethyl)piperazin-1-yl)phenyl) piperidine-2,6-dione]	96%	92%	0.51 nM
Cc1cc(-c2cnc(Nc3cnn(C4CCN(CCN5CCN(c6ccc(C7CCC(=O)NC7=O)cc6)CC5)CC4)c3)c3ncc(C)n23)c(F)cc1F (stereo not drawn) [Compound 61, 3-(4-(4-(2-(4-(4-((5-(2,4-difluoro-5-methylphenyl)-3-methylimidazo[1,2-a]pyrazin-8-yl)amino)-1H-pyrazol-1-yl)piperidin-1-yl)ethyl)piperazin-1-yl)phenyl) piperidine-2,6-dione]	20%	41%	18 nM
Cc1cc(-c2cnc(Nc3cnn([C@H]4CCN(CCN5CCN(c6ccc(C7CCC(=O)NC7=O)cc6)CC5)C[C@H]4F)c3)c3nccn23)c(F)cc1F (stereo partly drawn) [Compound 63, 3-(4-(4-(2-((3R,4S)-4-(4-((5-(2,4-difluoro-5-methylphenyl)imdazo [1,2-a]pyrazin-8-yl)amino)-1H-pyrazol-1-yl)-3-fluoropiperidin-1-yl)ethyl)piperazin-1-yl)phenyl) piperidine-2,6-dione]	8.9%	25%	0.51 nM
Cc1cccc(-c2cnc(Nc3cnn([C@H]4CC[C@H](CCN5CCN(c6ccc(C7CCC(=O)NC7=O)cc6)CC5)CC4)c3)c3nccn23)c1 (stereo partly drawn) [Compound 64]	8.6%	25%	4.2 nM
Cc1cc(-c2cnc(N[C@H]3CCN(C4CCN(CCN5CCN(c6ccc(C7CCC(=O)NC7=O)cc6)CC5)CC4)C3)c3nccn23)c(F)cc1F (stereo partly drawn) [Compound 65, 3-(4-(4-(2-(4-((S)-3-((5-(2,4-difluoro-5-methylphenyl)imdazo [1,2-a]pyrazin-8-yl)amino)pyrrolidin-1-yl)piperidin-1-yl)ethyl)piperazin-1-yl)phenyl) piperidine-2,6-dione]	96%	86%	3300 nM
Cn1cc(-c2cnc(Nc3cnn(C4CCN(CCN5CCN(c6ccc(C7CCC(=O)NC7=O)cc6)CC5)CC4)c3)c3nccn23)cn1 (stereo not drawn) [Compound 73, 3-(4-(4-(2-(4-(4-((5-(1-methyl-1H-pyrazol-4-yl)imidazo[1,2-a]pyrazin-8-yl)amino)-1H-pyrazol-1-yl)piperidin-1-yl)ethyl)piperazin-1-yl)phenyl) piperidine-2,6-dione]	9.1%	24%	0.51 nM
